Patent publication US5696277A, “Antiviral prodrugs” (Hostetler; Karl Y., priority 1994, dated 1997)
Like-named read-outs stand apart in the source and are kept apart here.

Columns and labels:
human cytomegalovirus = assay: CMV antiviral susceptibility assay: HCMV DNA by nucleic acid hybridization in infected MRC-5 cells (Tables I and II); assay type: cell-based; details: for fold increase in activity / times the activity of PAA: HCMV; for IC50: HCMV-infected MRC-5 cells, HCMV DNA after five days, mean ± S.D. (n)
Method: Phosphonoacid derivatives having structures according to formula I were tested for antiviral activity in human embryonic lung fibroblasts (MRC-5) or in human epithelioid cervical carcinoma cells (HeLa) expressing the CD4 receptor (HT4-6C). HCMV (strain AD-169) and HSV-1 (wild type) were used to infect MRC-5 cells and HCMV or HSV-specific DNA was measured by DNA-probe methods (HybriwixTM, Diagnostic Hybrids, Inc., Athens, Ohio) according to the manufacturer's instructions. HIV replication was accessed in HIV-1 infected HT4-6C cells using a plaque reduction assay ([…]. et al. (1990) Antimicrobial Agents Chemother. 34:436). Subconfluent MRC-5 cells in 24-well culture dishes were pretreated for 24 hours with various concentrations of drug in MEM medium containing 2% FBS and antibiotics. The media was removed and virus added at a dilution that will result in a 3-4+ cytopathic effect (CPE) in the no-drug wells in five days. This was absorbed for 1 hour at 37° C., aspirated and replaced with the drug dilutions. After five days of incubation HCMV DNA was quantified in triplicate by nucleic acid hybridization using a CMV Antiviral Susceptibility Test Kit from Diagnostic Hybrids, Inc. (Athens, Ohio). The media was removed and cells lysed according to the manufacturer's instructions. After absorption of the lysate, the HybriwixTM filters were hybridized overnight at 60° C. The HybriwixTM were washed for 30 minutes at 73° C. and counted in a gamma counter. The results are expressed as a percentage of the untreated HCMV-infected control cells.

[1] = tested on: DNA polymerase of many viruses, including human cytomegalovirus (HCMV), herpes simplex virus (HSV); details: HSV and many other viruses; cited from earlier work
[2] = tested on: reverse transcriptase of human immunodeficiency virus (HIV); details: cited from earlier work
[3] = in vivo; cited from earlier work
[4] = tested on: human herpes simplex virus 1; assay: HSV antiviral susceptibility assay: HSV DNA by nucleic acid hybridization in infected MRC-5 cells (Table III); assay type: cell-based; details: for times more active than PFA / fold increase in activity: HSV-1; for fold increase in activity: versus PFA
Method: (§1) Phosphonoacid derivatives having structures according to formula I were tested for antiviral activity in human embryonic lung fibroblasts (MRC-5) or in human epithelioid cervical carcinoma cells (HeLa) expressing the CD4 receptor (HT4-6C). HCMV (strain AD-169) and HSV-1 (wild type) were used to infect MRC-5 cells and HCMV or HSV-specific DNA was measured by DNA-probe methods (Hybriwix™, Diagnostic Hybrids, Inc., Athens, Ohio) according to the manufacturer's instructions. HIV replication was accessed in HIV-1 infected HT4-6C cells using a plaque reduction assay (Larder, B. et al. (1990) Antimicrobial Agents Chemother. 34:436).
Subconfluent MRC-5 cells in 24-well culture dishes were inoculated by removing the media and adding HSV-1 virus at a dilution that will result in a 3-4+ CPE in the no-drug well in 20-24 hours. This was absorbed for 1 hour at 37° C., aspirated and replaced with various concentrations of drugs in MEM medium containing 2% FBS and antibiotics. After approximately 24 hours of incubation, HSV DNA was quantified in triplicate by nucleic acid hybridization using a HSV Antiviral Susceptibility Test Kit from Diagnostic Hybrids, Inc. (Athens, Ohio). The media was removed and cells lysed according to the manufacturer's instructions. After absorption of the lysate, the Hybriwix™ filters were hybridized overnight at […] The Hybriwix™ were washed for 30 minutes at 73° C. and counted in a gamma counter. The results are expressed as a percentage of the untreated HSV-infected control cells.

[5] = tested on: human immunodeficiency virus-1; assay: HIV-1 plaque reduction assay in HT4-6C cells (Table IV); assay type: cell-based, HIV-1 in CD4-expressing human HeLa cells (HT4-6C); details: for fold increase in activity: HIV-1, versus PFA; for IC50: Human immunodeficiency virus 1, 72 h, HIV-1 plaque reduction in HT4-6C cells, 3 days, mean ± S.D. (n)
Method: as §1
HT4-6C cells and plaque reduction assay, CD4-expressing HeLa cells, HT4-6C cells (Chesebro, B. and K. Wehrly (1988) J. Virology 62:3779-3788), were obtained from Bruce Chesebro, Hamilton, Mont. The effect of antiviral compounds on HIV replication was measured by a plaque reduction assay. Briefly, monolayers of HT4-6C cells were infected with 100 to 300 PFU of virus per well in 24-well microdilution plates. Various concentrations of drug were added to the culture medium, Dulbecco's Modified Eagle Medium containing 5% fetal bovine serum and antibiotics, as noted above. After 3 days at 37° C., the monolayers were fixed with 10% formaldehyde solution in phosphate-buffered saline and stained with 0.25% crystal violet to visualize virus plaques (Larder, B. et al. (1989) Science 243:1731-1734). Antiviral activity was assessed as the percentage of control plaques measured in drug-treated samples.

in vitro = assay type: cell-based, human; details: human, mrc-5 cells
Method: (§2) The cytotoxicity of B-PFA and B-PAA in subconfluent MRC-5 cells was assessed by trypan blue exclusion.

MRC-5 cells = assay: in vitro; assay type: cell-based, human
Method: as §2

[6] = phosphonoacetate series, versus PAA
[7] = Human betaherpesvirus 5, MRC5, 120 h
[8] = phosphonoformate series, versus PFA
[9] = Human alphaherpesvirus 1, MRC5, HSV-1-infected MRC-5 cells, approximately 24 hours, mean ± S.D. (n), read-out: IC50

| Structure (SMILES) | fold increase in activity (human cytomegalovirus; [6]) [fold] | IC50 (human cytomegalovirus; [7]) [µM] | fold increase in activity (human cytomegalovirus; [8]) [fold] | other results |
| --- | --- | --- | --- | --- |
| CCCCCCCCCCCCCCCCCCOC[C@H](COP(=O)(O)CC(=O)OCC)OC [MB--PAA--OEt, 1-O-octadecyl-2-O-methyl-sn-glycero-3-phosphonoacetic acid ethyl ester] | 3.3 | 6.7 ± 1.9 | – | – |
| O=C(O)CP(=O)(O)O [PAA, phosphonoacetic acid] | – | 22 ± 7 | – | selective inhibition of viral DNA polymerase [1]: selectively inhibit the DNA polymerase of many viruses; selective inhibition of HIV reverse transcriptase [2]: selectively inhibit; toxicity in humans [3]: too toxic for use in humans |
| CCCCCCCCCCCCCCCCCCOC[C@@H](O)COP(=O)(O)CC(=O)OCC [B--PAA--OEt, 1O-octadecyl-snglycero-3-phosphonoacetate ethyl ester] | 6.1 | 3.6 ± 1.5 | – | – |
| CCCCCCCCCCCCCCCCCCOC[C@@H](O)COP(=O)(O)C(=O)OCC [B--PFA--OEt, 1O-octadecyl-snglycero-3-phosphonoformate ethyl ester] | – | 1.2 ± 0.49 | 38 | – |
| CCCCCCCCCCCCCC(=O)OC[C@H](COP(=O)(O)CC(=O)OCC)OC(=O)CCCCCCCCCCCCC [DMG--PAA--OEt, 1,2dimyristoyl-snglycero-3-phosphonoacetate ethyl ester] | 0.2 | 108 ± 42 | – | – |
| CCCCCCCCCCCCCC(=O)OC[C@H](COP(=O)(O)OP(=O)(O)CC(=O)O)OC(=O)CCCCCCCCCCCCC [DMP--PAA, 1,2dimyristoyl-snglycero-3-phospho-phosphonoacetate] | 0.2 | – | – | times the activity of PAA (human cytomegalovirus): 0.24 times; IC50 (human cytomegalovirus): 93 ± 92 µM |
| CCCCCCCCCCCCCCCC(=O)OC[C@H](COP(=O)(O)OP(=O)(O)CC(=O)O)OC(=O)CCCCCCCCCCCCCCC [DPP--PAA, 1,2dipalmitoyl-snglycero-3-phospho-phosphonoacetate] | 0.3 | – | – | times the activity of PAA (human cytomegalovirus): 0.28 times; IC50 (human cytomegalovirus): 80 ± 42 µM |
| CCCCCCCCCCCCCCCCCCOC[C@H](COP(=O)(O)C(=O)O)OC [MB--PFA, 1O-octadecyl-2-O-methyl-snglycero-3-phosphonoformic acid] | – | 0.64 ± 0.14 | 72 | fold increase in activity (human cytomegalovirus; phosphonoformate series, versus PFA, listed as MB-PFA): 38 fold; times more active than PFA [4]: 72 times; fold increase in activity [4]: 72 fold; IC50 [4, 9]: 0.65 ± 0.21 µM; activity compared with B-PFA ([5]; HIV-1, HT4-6C cells, p = 0.0373 versus B-PFA): more active than B-PFA to a statistically significant degree; fold increase in activity [5]: 104 fold; IC50 [5]: 1.28 ± 0.73 µM |
| CCCCCCCCCCCCCCCCCCOC[C@H](COP(=O)(O)CC(=O)OCC)OCc1ccccc1 [BB--PAA--OEt, 1O-octadecyl-2-O-benzyl-snglycero-3-phosphonoacetate ethyl ester] | 3.1 | 7.2 ± 1 | – | – |
| CCCCCCCCCCCCCCCCCCOC[C@H](COP(=O)(O)C(=O)OCC)OCc1ccccc1 [BB--PFA--OEt, 1O-octadecyl-2-O-benzyl-snglycero-3-phosphonoformate ethyl ester] | – | 2.9 ± 0.97 | 16 | – |
| CCCCCCCCCCCCCC(=O)OC[C@H](COP(=O)(O)C(=O)O)OC(=O)CCCCCCCCCCCCC [DMG--PFA, 1,2dimyristoyl-snglycero-3-phosphonoformate] | – | 125 ± 43 | 0.33 | – |
| O=C(O)P(=O)(O)O [PFA, phosphonoformic acid, reference compound] | – | 46 ± 19 | – | IC50 ([4]; Human alphaherpesvirus 1, MRC5, 24 h): 47 ± 20 µM; IC50 [5]: 133 ± 54 µM; selective inhibition of viral DNA polymerase [1]: selectively inhibit the DNA polymerase of many viruses; selective inhibition of HIV reverse transcriptase [2]: selectively inhibit; toxicity in humans [3]: substantial toxicity to the kidney and other organs |
| CCCCCCCCCCCCCCCCCCOC[C@H](COP(=O)(O)CC(=O)O)OC [MB--PAA, 1O-octadecyl-2-O-methyl-snglycero-3-phosphonoacetic acid] | 36 | 0.61 ± 0.76 | – | – |
| CCCCCCCCCCCCCC(=O)OC[C@H](COP(=O)(O)OP(=O)(O)CC(=O)OCC)OC(=O)CCCCCCCCCCCCC [DMP--PAA--OEt, 1,2dimyristoyl-snglycero-3-phospho-phosphonoacetate ethyl ester] | 0.2 | – | – | IC50 (human cytomegalovirus): 130 ± 28 µM |
| CCCCCCCCCCCCCCCCCCOC[C@H](COP(=O)(O)CC(=O)O)OCc1ccccc1 [BB--PAA, 1O-octadecyl-2-O-benzyl-snglycero-3-phosphonoacetic acid] | 24 | 0.92 ± 0.8 | – | – |
| CCCCCCCCCCCCCCCCCCOC[C@@H](O)COP(=O)(O)C(=O)O [B--PFA, 1O-octadecyl-snglycero-3-phosphonoformic acid] | – | 0.43 ± 0.27 | 107 | times more active than PFA [4]: 43 times; fold increase in activity [4]: 43 fold; IC50 [4, 9]: 1.1 ± 1.1 µM; fold increase in activity [5]: 37 fold; IC50 [5]: 3.6 ± 1.51 µM; CC50 (in vitro): > 1000 µM; selectivity index (MRC-5 cells): ≥ 300 |
| CCCCCCCCCCCCCCCCCCOC[C@H](COC(=O)CP(=O)(O)O)OCc1ccccc1 [BB--(C)--PAA, 1O-octadecyl-2-O-benzyl-snglycero-3-carboxymethylenephosphonate] | 16 | 1.4 ± 0.9 | – | – |
| CCCCCCCCCCCCCC(=O)OC[C@H](COP(=O)(O)CC(=O)O)OC(=O)CCCCCCCCCCCCC [DMG--PAA, 1,2dimyristoyl-snglycero-3-phosphonoacetate] | 1.2 | 19 ± 6.5 | – | times the activity of PAA (human cytomegalovirus): 1.2 times |
| CCCCCCCCCCCCCC(=O)OC[C@H](COP(=O)(O)C(=O)OCC)OC(=O)CCCCCCCCCCCCC [DMG--PFA--OEt, 1,2dimyristoyl-snglycero-3-phosphonoformate ethyl ester] | – | 30 ± 18 | 1.53 | – |
| CCCCCCCCCCCCCCCCCCOC[C@H](COP(=O)(O)C(=O)O)OCc1ccccc1 [BB--PFA, 1O-octadecyl-2-O-benzyl-snglycero-3-phosphonoformic acid] | – | 0.64 ± 0.65 | 72 | times more active than PFA [4]: 34 times; fold increase in activity [4]: 34 fold; IC50 [4, 9]: 1.4 ± 0.4 µM; fold increase in activity [5]: 9.0 fold; fold increase in activity ([5]; listed as BB-PFA): 9 fold; IC50 [5]: 14.8 ± 7.3 µM |
| CCCCCCCCCCCCCCCCCCOC[C@@H](O)COP(=O)(O)CC(=O)O [B--PAA, 1O-octadecyl-snglycero-3-phosphonoacetic acid] | 100 | 0.22 ± 0.08 | – | CC50 (in vitro): 32 to 100 µM; selectivity index (MRC-5 cells): ≥ 300 |
